Measured values published in ChEMBL document CHEMBL1201862, “PubChem BioAssay data set” (2004).
Active and inactive are the calls of the source.

Experiments:
[1] = Luminescence Cell-Based Dose Confirmation HTS to Identify Inhibitors of Platelet Dense Granule Release. [Related pubchem assays: 1663 (Primary HTS), 1678 (Summary of Project)]; assay type: functional
[2] = target: T1, Cytochrome P450 1A2 (Homo sapiens, UniProt P05177);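 note: PubChem cytochrome P450 panel assay, CYP1A2 panel member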
T1 sequence (P05177 whole entry): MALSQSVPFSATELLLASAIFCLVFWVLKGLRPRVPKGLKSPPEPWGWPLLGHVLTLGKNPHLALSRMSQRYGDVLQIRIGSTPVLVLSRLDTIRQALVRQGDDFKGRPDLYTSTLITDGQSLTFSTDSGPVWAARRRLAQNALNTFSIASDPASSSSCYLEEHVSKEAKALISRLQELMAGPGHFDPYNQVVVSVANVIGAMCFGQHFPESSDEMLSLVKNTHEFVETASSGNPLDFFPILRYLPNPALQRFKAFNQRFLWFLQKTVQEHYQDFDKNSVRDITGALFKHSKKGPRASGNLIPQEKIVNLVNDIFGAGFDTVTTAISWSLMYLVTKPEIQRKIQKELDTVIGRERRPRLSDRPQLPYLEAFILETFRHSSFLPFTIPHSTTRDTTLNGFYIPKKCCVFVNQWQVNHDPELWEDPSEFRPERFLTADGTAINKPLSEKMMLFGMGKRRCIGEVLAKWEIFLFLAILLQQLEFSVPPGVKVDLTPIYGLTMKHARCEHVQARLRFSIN

[3] = target: Luciferin 4-monooxygenase (Photinus pyralis, UniProt P08659); assay: firefly luciferase enzyme inhibitors, dose response, biochemical, luminescence (AID 1891)
[4] = target: Ras and Rab interactor 1/Tyrosine-protein kinase ABL1 (Homo sapiens, UniProt P00519+Q13671); assay type: functional;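 note: biochemical TR-FRET dose-response test measuring inhibition of binding between Rin1 and Abl proteins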
[5] = target: Cytochrome P450 3A4 (Homo sapiens, UniProt P08684);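 note: CYP3A4 tested as one member of a cytochrome P450 panel screen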
[6] = target: Cytochrome P450 2C19 (Homo sapiens, UniProt P33261); assay: Cytochrome panel assay with activity outcomes. Panel member name: p450-cyp2c19 Compounds with AC50 equal or less than 10 uM are considered active; assay type: functional; details: read-out: AC50
[7] = (§1) Counterscreen for antagonists of the orexin 1 receptor (OX1R; HCRTR1): Fluorescence-based cell-based high throughput dose response assay to identify antagonists of the parental CHO cell line. [Related pubchem assays (depositor defined):AID434989, AID435008, AID463079, AID485270, AID492963, AID492964, AID492965, AID493232, AID504699, AID504701]; assay type: functional
[8] = target: T2, Orexin/Hypocretin receptor type 1 (Homo sapiens, UniProt O43613); assay: (§2) Fluorescence-based cell-based high throughput dose response assay for antagonists of the orexin 1 receptor (OX1R; HCRTR1). [Related pubchem assays (depositor defined):AID434989, AID435008, AID463079, AID485270, AID492963, AID492964, AID492965, AID493232, AID504717, AID504718]; assay type: functional
T2 sequence (O43613 whole entry): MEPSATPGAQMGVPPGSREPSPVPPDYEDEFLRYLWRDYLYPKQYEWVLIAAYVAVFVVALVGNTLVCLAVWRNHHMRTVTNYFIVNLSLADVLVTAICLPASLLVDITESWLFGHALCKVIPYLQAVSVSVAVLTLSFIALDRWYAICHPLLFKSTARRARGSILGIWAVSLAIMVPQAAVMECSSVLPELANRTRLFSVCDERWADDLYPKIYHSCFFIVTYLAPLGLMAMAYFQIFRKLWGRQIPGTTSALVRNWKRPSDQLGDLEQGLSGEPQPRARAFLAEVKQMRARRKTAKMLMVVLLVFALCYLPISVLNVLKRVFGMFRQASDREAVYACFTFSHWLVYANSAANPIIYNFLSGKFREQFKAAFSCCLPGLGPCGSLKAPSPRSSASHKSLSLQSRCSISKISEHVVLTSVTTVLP

[9] = target: T3, Orexin receptor type 2 (Homo sapiens, UniProt O43614); assay: Counterscreen assay for antagonists of the orexin 1 receptor (OX1R; HCRTR1): Fluorescence-based cell-based dose response assay for antagonists of the orexin 2 receptor (OX2R; HCRTR2), run by assay provider.; assay type: functional
T3 sequence (O43614 whole entry): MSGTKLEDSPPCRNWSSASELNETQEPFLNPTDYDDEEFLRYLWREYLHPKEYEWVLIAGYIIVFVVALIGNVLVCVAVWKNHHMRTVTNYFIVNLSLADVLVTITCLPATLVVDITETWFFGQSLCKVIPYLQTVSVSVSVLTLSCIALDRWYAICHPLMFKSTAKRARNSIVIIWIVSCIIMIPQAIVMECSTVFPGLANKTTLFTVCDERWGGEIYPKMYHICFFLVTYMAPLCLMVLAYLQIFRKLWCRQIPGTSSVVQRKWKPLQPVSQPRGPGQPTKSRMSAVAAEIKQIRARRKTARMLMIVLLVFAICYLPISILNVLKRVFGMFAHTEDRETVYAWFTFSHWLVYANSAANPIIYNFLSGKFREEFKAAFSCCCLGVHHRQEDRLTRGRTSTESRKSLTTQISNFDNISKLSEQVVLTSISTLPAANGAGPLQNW

[10] = target: T2, Orexin/Hypocretin receptor type 1; assay: as §2, with “Homogeneous Time Resolved Fluorescence (HTRF)-based” for “Fluorescence-based”; assay type: functional
[11] = test system: CHO-K1; assay: as §1, with “Homogeneous time resolved fluorescence (HTRF)-based” for “Fluorescence-based”, “cell-based” for “cell-based high throughput”, “CHO-K1” for “CHO”; assay type: functional; details: Cricetulus griseus;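 note: potency for inhibition of ATP-stimulated IP1 production as antagonists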
[12] = target: T3, Orexin receptor type 2; assay: Counterscreen assay for antagonists of the orexin 1 receptor (OX1R; HCRTR1): Homogeneous Time Resolved Fluorescence (HTRF)-based cell-based dose response assay for antagonists of the orexin 2 receptor (OX2R; HCRTR2), run by assay provider.; assay type: functional
[13] = target: T4, Aurora kinase A (Homo sapiens, UniProt O14965); assay type: functional;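 note: value from the Navigating the Kinome kinase panel profiling, panel entry STK6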
T4 sequence (O14965 whole entry): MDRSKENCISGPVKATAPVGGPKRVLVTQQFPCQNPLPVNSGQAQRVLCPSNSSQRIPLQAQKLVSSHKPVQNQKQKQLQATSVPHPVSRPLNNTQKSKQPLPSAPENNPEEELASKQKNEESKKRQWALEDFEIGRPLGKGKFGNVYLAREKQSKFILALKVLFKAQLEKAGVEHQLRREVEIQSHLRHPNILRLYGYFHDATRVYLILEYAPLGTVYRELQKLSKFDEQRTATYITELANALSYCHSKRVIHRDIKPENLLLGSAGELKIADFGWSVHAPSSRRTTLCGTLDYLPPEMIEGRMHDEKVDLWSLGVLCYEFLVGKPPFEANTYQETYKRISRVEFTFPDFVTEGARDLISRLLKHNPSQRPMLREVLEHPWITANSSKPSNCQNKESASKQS

[14] = target: Aurora kinase B (Homo sapiens, UniProt Q96GD4); assay type: functional
[15] = target: T5, Protein RecA (Mycobacterium tuberculosis, UniProt P9WHJ3); assay: Fluorescence Cell-Free Homogeneous Dose Retest to Identify Inhibitors of RecA-Intein Splicing Activity. [Related pubchem assays (depositor defined):AID2097, AID2223, AID489010, AID492950]; assay type: functional
T5 sequence (P9WHJ3 whole entry): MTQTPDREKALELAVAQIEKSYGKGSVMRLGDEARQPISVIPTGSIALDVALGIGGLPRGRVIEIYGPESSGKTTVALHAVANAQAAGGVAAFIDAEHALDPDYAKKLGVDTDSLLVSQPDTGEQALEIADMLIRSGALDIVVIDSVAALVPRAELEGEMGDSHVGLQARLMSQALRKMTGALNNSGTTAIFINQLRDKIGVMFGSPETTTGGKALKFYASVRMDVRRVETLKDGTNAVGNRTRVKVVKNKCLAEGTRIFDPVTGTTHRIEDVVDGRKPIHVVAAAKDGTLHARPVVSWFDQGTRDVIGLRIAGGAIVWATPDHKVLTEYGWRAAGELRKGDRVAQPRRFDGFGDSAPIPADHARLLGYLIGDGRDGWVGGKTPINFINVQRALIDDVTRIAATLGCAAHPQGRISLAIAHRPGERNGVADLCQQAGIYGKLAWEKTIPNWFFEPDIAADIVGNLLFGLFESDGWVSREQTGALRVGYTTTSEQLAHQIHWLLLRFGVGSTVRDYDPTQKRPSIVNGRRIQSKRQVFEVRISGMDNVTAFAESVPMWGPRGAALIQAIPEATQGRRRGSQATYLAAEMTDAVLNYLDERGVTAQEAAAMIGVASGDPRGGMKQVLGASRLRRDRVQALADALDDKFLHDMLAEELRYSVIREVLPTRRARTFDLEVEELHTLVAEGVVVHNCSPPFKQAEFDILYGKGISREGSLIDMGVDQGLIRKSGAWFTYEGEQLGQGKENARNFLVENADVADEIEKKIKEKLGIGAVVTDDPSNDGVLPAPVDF

[16] = target: T6, Replicative DNA helicase DnaB (Mycobacterium tuberculosis, UniProt P9WMR3); assay: DnaB intein splicing inhibitors, dose response, biochemical, cell-free fluorescence (AID 449749); assay type: functional
T6 sequence (P9WMR3 whole entry): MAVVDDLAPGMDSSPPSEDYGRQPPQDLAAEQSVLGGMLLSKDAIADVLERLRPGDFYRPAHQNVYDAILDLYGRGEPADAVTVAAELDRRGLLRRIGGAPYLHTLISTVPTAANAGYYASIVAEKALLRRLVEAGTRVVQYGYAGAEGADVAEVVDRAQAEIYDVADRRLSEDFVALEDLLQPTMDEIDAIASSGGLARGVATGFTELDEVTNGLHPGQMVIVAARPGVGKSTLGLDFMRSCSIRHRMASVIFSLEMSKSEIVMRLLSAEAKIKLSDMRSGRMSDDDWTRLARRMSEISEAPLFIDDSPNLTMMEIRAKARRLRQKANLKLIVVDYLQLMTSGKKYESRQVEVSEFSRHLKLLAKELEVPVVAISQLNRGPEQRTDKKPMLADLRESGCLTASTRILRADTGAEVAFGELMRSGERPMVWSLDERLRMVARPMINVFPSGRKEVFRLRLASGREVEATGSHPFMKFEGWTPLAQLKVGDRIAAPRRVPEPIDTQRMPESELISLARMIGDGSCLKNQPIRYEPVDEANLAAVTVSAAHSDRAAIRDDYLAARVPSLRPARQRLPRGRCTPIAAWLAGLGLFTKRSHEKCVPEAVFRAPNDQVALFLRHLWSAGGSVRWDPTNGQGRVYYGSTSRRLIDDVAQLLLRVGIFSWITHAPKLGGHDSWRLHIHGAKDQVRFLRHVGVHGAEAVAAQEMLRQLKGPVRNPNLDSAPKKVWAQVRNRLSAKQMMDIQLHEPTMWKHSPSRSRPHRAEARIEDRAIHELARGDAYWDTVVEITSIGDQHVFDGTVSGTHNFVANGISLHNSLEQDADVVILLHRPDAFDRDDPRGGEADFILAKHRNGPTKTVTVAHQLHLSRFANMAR

[17] = target: Genome polyprotein (dengue virus type 2, UniProt P29990); assay: Dengue-2 NS5 methyltransferase inhibitors, primary screen, biochemical, confirmation dose response (AID 588689); assay type: functional
[18] = target: Heat shock protein HSP 90-alpha (Homo sapiens, UniProt P07900); assay type: functional, organism-based
[19] = cytotoxicity toward NIH3T3 fibroblasts, dose response, counter-screen, cell-based, ATP luminescence, mouse fibroblasts (AID 2010); assay type: functional;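 note: cells exposed to compound for about 90 hours before reading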
[20] = inhibitors of intracellular T. cruzi replication, confirmation, NIH3T3 host cells, beta-gal luminescence (AID 2044); assay type: functional, cell-based;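 note: intracellular parasites grown in NIH/3T3 mouse fibroblasts as host cells; luminescent beta-galactosidase reporter signal from transgenic T. cruzi replicating inside host cells; inhibitors lower the luminescence signal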
[21] = cells
[22] = HEp-2 cell cytotoxicity, dose response, cytotoxicity control for RSV inhibitor project, HTS (AID 2410); assay type: functional; details: human respiratory syncytial virus
[23] = target: FAD-linked sulfhydryl oxidase ALR (Homo sapiens, UniProt P55789); assay: inhibitors of human ALR sulfhydryl oxidase, dose response, biochemical, H2O2 detection, luminescence, cherry-pick (AID 493248)
Sequence of FAD-linked sulfhydryl oxidase ALR (P55789 whole entry): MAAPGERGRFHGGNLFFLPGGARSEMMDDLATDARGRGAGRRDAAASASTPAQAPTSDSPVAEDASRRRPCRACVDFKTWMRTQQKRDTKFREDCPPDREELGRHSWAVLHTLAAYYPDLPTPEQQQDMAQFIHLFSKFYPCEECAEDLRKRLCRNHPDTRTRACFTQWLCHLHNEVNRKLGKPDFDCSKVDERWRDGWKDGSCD

Sequence of Ras and Rab interactor 1/Tyrosine-protein kinase ABL1 (P00519 whole entry): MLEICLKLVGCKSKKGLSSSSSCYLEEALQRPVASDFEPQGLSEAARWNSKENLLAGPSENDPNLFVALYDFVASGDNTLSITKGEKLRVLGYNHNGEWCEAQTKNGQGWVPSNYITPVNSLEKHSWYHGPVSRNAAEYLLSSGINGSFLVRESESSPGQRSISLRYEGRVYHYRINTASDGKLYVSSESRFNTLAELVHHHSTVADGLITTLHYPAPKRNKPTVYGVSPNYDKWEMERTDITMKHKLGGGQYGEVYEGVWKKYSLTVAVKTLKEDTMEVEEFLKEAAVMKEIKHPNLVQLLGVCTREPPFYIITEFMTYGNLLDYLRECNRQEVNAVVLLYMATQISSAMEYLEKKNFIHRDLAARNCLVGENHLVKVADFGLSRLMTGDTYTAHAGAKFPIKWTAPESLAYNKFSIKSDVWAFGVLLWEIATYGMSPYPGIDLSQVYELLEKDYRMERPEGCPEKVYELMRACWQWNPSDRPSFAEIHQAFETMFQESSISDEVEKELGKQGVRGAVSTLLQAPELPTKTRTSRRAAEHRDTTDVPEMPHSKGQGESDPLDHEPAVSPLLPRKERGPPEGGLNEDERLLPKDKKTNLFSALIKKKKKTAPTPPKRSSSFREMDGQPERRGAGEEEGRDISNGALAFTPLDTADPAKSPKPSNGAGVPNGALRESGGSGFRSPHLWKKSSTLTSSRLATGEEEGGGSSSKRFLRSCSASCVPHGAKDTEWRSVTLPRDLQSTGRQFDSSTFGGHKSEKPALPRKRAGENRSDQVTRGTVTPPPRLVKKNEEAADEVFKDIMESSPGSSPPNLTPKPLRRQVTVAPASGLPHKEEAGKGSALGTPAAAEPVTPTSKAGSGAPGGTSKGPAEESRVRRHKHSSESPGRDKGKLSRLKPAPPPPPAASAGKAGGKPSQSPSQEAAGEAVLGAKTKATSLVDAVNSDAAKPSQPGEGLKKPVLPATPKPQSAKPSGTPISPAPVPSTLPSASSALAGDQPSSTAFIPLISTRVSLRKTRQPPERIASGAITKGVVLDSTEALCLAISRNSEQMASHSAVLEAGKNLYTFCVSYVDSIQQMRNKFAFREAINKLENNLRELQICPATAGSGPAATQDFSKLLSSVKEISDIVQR
Sequence of Ras and Rab interactor 1/Tyrosine-protein kinase ABL1 (Q13671 whole entry): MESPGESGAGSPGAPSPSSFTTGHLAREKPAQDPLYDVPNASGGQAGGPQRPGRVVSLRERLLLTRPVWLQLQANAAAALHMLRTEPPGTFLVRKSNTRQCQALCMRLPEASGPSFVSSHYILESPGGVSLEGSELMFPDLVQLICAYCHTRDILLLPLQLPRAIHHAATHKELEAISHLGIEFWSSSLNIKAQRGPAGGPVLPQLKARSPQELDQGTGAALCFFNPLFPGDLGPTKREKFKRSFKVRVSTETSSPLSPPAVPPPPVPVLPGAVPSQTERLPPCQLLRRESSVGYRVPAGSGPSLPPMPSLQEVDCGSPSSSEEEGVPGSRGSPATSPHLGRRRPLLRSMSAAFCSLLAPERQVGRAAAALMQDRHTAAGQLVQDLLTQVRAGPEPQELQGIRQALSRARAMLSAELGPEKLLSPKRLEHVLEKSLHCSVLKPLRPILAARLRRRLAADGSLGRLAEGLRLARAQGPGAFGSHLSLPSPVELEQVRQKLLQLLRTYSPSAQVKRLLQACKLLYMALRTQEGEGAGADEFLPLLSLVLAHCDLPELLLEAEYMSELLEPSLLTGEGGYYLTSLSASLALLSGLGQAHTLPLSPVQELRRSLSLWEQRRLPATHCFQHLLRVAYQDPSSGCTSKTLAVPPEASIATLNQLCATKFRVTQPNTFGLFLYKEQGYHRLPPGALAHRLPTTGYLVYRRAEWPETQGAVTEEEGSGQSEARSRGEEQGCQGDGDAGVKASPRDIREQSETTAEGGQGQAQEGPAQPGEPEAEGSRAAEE
Sequence of Genome polyprotein (P29990 2492-3391 limits assumed): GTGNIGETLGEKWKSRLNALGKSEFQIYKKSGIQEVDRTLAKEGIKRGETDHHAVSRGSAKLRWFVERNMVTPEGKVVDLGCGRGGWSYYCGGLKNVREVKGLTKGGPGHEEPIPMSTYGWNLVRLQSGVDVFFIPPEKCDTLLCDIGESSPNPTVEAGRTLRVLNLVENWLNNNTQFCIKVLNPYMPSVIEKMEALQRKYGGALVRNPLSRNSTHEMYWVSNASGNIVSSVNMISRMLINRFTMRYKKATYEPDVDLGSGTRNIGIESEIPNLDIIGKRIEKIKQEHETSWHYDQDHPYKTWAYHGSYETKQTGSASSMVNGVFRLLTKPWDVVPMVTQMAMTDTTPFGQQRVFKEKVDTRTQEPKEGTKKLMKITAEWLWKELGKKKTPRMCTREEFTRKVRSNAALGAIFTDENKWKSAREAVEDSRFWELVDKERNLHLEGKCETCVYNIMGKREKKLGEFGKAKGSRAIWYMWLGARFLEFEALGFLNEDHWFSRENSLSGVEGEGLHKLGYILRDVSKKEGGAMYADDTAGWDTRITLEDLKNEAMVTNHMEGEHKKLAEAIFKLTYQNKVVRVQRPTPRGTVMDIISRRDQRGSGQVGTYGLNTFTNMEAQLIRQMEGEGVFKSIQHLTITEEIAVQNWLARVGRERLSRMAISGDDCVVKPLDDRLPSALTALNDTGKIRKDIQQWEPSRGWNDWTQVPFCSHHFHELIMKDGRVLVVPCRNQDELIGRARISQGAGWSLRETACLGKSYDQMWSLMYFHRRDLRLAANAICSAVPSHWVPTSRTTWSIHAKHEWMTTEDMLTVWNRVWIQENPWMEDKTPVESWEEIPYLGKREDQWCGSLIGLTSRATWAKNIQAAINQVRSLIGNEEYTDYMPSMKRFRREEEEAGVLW
Sequence of Aurora kinase B (Q96GD4 whole entry): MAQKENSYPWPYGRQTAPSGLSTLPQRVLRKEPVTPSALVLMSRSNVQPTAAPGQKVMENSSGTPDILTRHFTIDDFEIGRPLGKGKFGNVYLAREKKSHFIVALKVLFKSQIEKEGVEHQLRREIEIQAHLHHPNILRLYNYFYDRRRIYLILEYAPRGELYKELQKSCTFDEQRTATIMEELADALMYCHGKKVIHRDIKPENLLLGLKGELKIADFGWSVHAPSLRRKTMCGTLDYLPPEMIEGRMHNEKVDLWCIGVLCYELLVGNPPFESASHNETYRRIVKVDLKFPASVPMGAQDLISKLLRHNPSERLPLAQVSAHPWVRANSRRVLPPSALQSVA
Sequence of Luciferin 4-monooxygenase (P08659 whole entry): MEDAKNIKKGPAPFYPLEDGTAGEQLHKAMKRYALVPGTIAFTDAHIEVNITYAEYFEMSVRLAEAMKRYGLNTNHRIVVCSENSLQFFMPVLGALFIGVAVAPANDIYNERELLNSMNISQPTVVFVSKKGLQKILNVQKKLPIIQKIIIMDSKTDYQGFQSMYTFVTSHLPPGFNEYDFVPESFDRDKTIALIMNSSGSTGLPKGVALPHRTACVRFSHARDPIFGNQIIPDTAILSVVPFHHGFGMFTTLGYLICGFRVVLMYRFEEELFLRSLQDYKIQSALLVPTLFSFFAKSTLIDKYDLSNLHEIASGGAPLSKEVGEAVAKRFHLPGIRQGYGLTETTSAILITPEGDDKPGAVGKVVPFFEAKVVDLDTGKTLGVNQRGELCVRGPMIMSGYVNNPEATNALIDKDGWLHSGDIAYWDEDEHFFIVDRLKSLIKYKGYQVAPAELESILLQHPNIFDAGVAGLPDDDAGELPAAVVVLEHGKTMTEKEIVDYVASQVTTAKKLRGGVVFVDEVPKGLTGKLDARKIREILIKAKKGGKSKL
Sequence of Cytochrome P450 2C19 (P33261 whole entry): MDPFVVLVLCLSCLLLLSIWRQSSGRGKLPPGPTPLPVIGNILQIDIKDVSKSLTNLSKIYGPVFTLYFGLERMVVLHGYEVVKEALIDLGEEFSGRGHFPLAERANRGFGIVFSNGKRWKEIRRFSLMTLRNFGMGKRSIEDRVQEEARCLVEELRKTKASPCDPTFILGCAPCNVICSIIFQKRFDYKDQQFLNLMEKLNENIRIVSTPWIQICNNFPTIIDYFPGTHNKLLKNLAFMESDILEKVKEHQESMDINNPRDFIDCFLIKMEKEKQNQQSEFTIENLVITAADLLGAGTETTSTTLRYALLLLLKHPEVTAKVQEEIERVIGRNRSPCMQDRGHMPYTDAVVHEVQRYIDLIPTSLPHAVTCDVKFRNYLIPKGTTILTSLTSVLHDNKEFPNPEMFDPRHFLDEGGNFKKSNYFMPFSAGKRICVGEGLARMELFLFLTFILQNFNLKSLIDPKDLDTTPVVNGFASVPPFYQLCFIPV
Sequence of Cytochrome P450 3A4 (P08684 whole entry): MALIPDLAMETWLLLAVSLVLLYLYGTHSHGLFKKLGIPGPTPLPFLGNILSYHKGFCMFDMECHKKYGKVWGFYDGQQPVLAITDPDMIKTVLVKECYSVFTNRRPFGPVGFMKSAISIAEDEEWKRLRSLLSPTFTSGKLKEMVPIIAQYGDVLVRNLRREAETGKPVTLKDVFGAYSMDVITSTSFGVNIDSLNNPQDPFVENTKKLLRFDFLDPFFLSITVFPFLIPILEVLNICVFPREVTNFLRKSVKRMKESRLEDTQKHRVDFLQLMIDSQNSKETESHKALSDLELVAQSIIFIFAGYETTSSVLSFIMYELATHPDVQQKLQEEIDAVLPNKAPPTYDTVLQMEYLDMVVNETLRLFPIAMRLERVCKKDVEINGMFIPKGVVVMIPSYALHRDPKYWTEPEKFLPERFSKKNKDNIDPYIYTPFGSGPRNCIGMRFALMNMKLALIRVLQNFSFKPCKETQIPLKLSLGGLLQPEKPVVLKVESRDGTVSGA

CCOC(=O)N1CCC(NC(=O)CCc2nc(C3=CCN(C)CC3)no2)CC1
EC50 [1]: > 112 µM (not active) | AC50 [2]: 1 µM (inconclusive) | EC50 [3]: > 112 µM (not active) | IC50 [4]: 5.11 µM (active) | AC50 [5]: 25.1 µM (inconclusive) | AC50 [6]: 11.2 µM (inconclusive)

CC(C)(O)c1cc2ccc(C#Cc3ccsc3)cc2c(=O)o1
IC50 [7]: > 49.7 µM (inactive) | IC50 [8]: 9.4 µM (active) | IC50 [9]: > 88.8 µM (inactive) | IC50 [10]: 4.32 µM (active) | IC50 [11]: > 66.2 µM (inactive) | IC50 [12]: > 50 µM (inactive)

O=C(N=Nc1c(O)[nH]c2ccccc12)c1cccc(S(=O)(=O)Nc2ccccc2Cl)c1
IC50 [7]: > 49.8 µM (inactive) | IC50 [8]: > 49.8 µM (inactive) | IC50 [9]: > 88.8 µM (inactive) | IC50 [10]: 1.01 µM (active) | IC50 [11]: > 66.2 µM (inactive) | IC50 [12]: > 50 µM (inactive)

CC(Nc1cncc(-n2cnc3ccccc32)n1)c1ccc(F)cc1 (stereo not given)
Ki [13]: 1.26 µM (active) | Ki [14]: 0.0794 µM (active)

COC(=O)c1cccc(N2C(=O)C(Cl)=C(N3CCOCC3)C2=O)c1
EC50 [15]: 1.93 µM (active) | AC50 [16]: 4.2 µM (active) | IC50 [17]: 23.6 µM (active)

Cc1ccccc1CN1C[C@@H]2C[C@@H](c3ccc4nsnc4c3)N3CCC[C@@]23C1=O
IC50 [4]: 34.1 µM (inactive)

COc1ccc2c(c1)C=C(C(=O)NCc1ccc(Cl)cc1)CO2
AC50 [18]: 69.4 µM (active)

N=C(NOC(=O)c1ccc2ccccc2c1)c1ccccc1Cl
EC50 [19]: 8.76 µM (active) | AC50 [18]: 2.34 µM (active) | EC50 [20]: 1.8 µM (active)

COc1ccc(CN2CC[C@H]3C=CC[C@@H](C(=O)Nc4ccc(Cl)c(C(F)(F)F)c4)[C@H]3C2=O)cc1OC
IC50 [21]: 23.6 µM (active) | CC50 [22]: 42.4 µM (active) | IC50 [7]: > 49.8 µM (inactive) | IC50 [8]: 3.22 µM (active) | IC50 [9]: > 88.8 µM (inactive) | IC50 [10]: 0.071 µM (active) | IC50 [11]: > 66.2 µM (inactive) | IC50 [12]: > 50 µM (inactive)

CC1=NN(Cc2ccccc2)C(=O)C1C(c1ccccc1)C(C#N)C#N (stereo not given)
EC50 [15]: 2.22 µM (active) | AC50 [23]: 5.37 µM (active) | AC50 [16]: 3.54 µM (active) | IC50 [17]: 55.4 µM (active)
